PubChem BioAssay (NCI)
Values joined by “and” are separate entries in the source; they are usually repeats but may differ in a detail not shown here. Equal entries are not always repeated.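 How tested: cells in 96-well plates exposed to compound for 48 hours at five concentrations. GI50: concentration for 50% inhibition of growth. TGI is the concentration that stops growth completely.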

Columns and labels:
Experiment in all cases: growth of human tumour cells (NCI), 48 h
[1] = test system: OVCAR-4 ovarian
[2] = test system: RPMI-8226 leukemia
[3] = test system: NCI-H460 lung
[4] = test system: A549 NSCLC
[5] = test system: HCC-2998 colon
[6] = test system: RXF 393 renal
[7] = test system: MDA-MB-231 breast
[8] = test system: U251 CNS
[9] = test system: SF-268 CNS
[10] = test system: SW-620 colon
[11] = test system: OVCAR-8 ovarian
[12] = test system: IGROV1 ovarian
[13] = test system: SK-OV-3 ovarian
[14] = test system: HOP-62 NSCLC
[15] = test system: HCT-116 colon
[16] = test system: HOP-92 NSCLC
[17] = test system: SR leukemia

Molecule `Cc1cccc2[nH]c3c(c(O)cc4[nH]c5cccc(C)c5c(=O)c43)c(=O)c12` has a TGI [1] of over 10 µM, a TGI [2] of over 10 µM and a TGI [3] of over 10 µM. The TGI [4] was over 10 µM, the TGI [5] was over 10 µM and the TGI [6] was over 10 µM. It also gave a TGI [7] of over 10 µM, a TGI [8] of over 10 µM and a TGI [9] of over 10 µM. For the same molecule, the TGI [10] was over 10 µM, the TGI [11] was over 10 µM and the TGI [12] was over 10 µM. The TGI [13] was over 10 µM, the TGI [14] was over 10 µM and the TGI [15] was over 10 µM.

In the case of `C1CCCCC2(CCCCCCCCC3(CCC1)SCCS3)SCCS2`, the TGI [1] is reported as over 100 µM, the TGI [3] is reported as over 100 µM and the TGI [4] is reported as over 100 µM. It also gave a TGI [5] of over 100 µM, a TGI [8] of over 100 µM and a TGI [16] of over 100 µM. It also gave a TGI [17] of over 100 µM, a TGI [9] of over 100 µM and a TGI [10] of over 100 µM. For the same molecule, the TGI [11] was over 100 µM, the TGI [12] was over 100 µM and the TGI [13] was over 100 µM. It also gave a TGI [14] of over 100 µM and a TGI [15] of over 100 µM.

`CCC(C)C(N)C(=O)N/N=C\c1c2c(nc3ccccc13)-c1cc3c(c(=O)n1C2)COC(=O)[C@]3(O)CC` (some centres not stated) gave a TGI [1] of 52.6 µM, a TGI [2] of 11.4 µM and a TGI [3] of 1.5 µM. For the same molecule, the TGI [4] was 14.2 µM, the TGI [5] was 15.2 µM and the TGI [6] was 0.218 µM. It also gave a TGI [7] of over 82.2 µM, a TGI [8] of 0.669 µM and a TGI [16] of 1.8 µM. The TGI [10] was over 43.7 µM, the TGI [11] was over 20 µM and the TGI [12] was over 47 µM. For the same molecule, the TGI [13] was over 64.5 µM, the TGI [14] was 1.15 µM and the TGI [15] was 2.96 µM.

`COc1cc(C2c3cc4c(cc3OC(NNS(=O)(=O)c3ccc(C)cc3)C2C)OCO4)cc(OC)c1OC` (configuration not stated) gave a TGI [1] of 48.4 µM, a TGI [2] of 18.4 µM and a TGI [3] of 12.4 µM. It also gave a TGI [4] of 34.4 µM, a TGI [5] of over 23.4 µM and a TGI [6] of 23.8 µM. The TGI [7] was over 64.1 µM, the TGI [8] was 13.4 µM and the TGI [16] was 50.1 µM. For the same molecule, the TGI [9] was over 70.5 µM, the TGI [10] was over 100 µM and the TGI [11] was 46.8 µM. For the same molecule, the TGI [12] was over 67.3 µM, the TGI [13] was over 70.6 µM and the TGI [14] was 4.68 µM. The TGI [15] was 12.1 µM.

With `COc1cc(C(=O)N[C@H]2CCc3cc(OC)c(OC)c(OC)c3-c3ccc(SC)c(=O)cc32)cc(OC)c1OC` the GI50 [1] was 0.0285 µM, the TGI [1] was 25 µM and > 100 µM and the TGI [2] was 25 µM and > 100 µM. For the same molecule, the TGI [3] was 0.0137 µM and 0.0808 µM, the GI50 [4] was 0.017 µM and the TGI [4] was 25 µM and > 100 µM. For the same molecule, the TGI [5] was 0.159 µM, the TGI [8] was 0.0812 µM and the TGI [16] was 25 µM. The TGI [17] was 25 µM and > 100 µM, the TGI [9] was 25 µM and 49 µM and the TGI [10] was 25 µM and > 100 µM. For the same molecule, the TGI [11] was 0.0478 µM, the TGI [12] was 25 µM and 62.7 µM and the TGI [13] was 0.0203 µM. For the same molecule, the GI50 [14] was 0.47 µM, the TGI [14] was 25 µM and > 100 µM and the TGI [15] was 3.02 µM and 17 µM.

For `O=c1[nH]nc(Cc2ccccc2)n1/N=C/c1ccco1`, the TGI [1] was over 100 µM, the TGI [2] was over 100 µM and the TGI [3] was over 100 µM. For the same molecule, the TGI [4] was over 100 µM, the TGI [5] was over 100 µM and the TGI [6] was over 100 µM. It also gave a TGI [7] of over 100 µM, a TGI [8] of over 100 µM and a TGI [9] of over 100 µM. It also gave a TGI [10] of over 100 µM, a TGI [11] of over 100 µM and a TGI [13] of over 100 µM. It also gave a TGI [14] of over 100 µM and a TGI [15] of over 100 µM.

For `COc1ccc(-c2c(-c3ccccc3)c(C)c3ccccn23)cc1`, the TGI [1] was over 100 µM, the TGI [2] was over 100 µM and the TGI [3] was over 100 µM. For the same molecule, the TGI [4] was over 100 µM, the TGI [5] was over 100 µM and the TGI [7] was over 100 µM. For the same molecule, the TGI [8] was over 100 µM, the TGI [16] was over 100 µM and the TGI [17] was over 100 µM. The TGI [10] was over 100 µM, the TGI [11] was over 100 µM and the TGI [12] was over 100 µM. The TGI [13] was over 100 µM, the TGI [14] was over 100 µM and the TGI [15] was over 100 µM.
